Data taken from patent US6914045B2, “Glycopeptide antibiotics” (Wyeth Holdings Corporation, priority 2001, dated 2005).
In brackets after ≈: the same amount, converted by molar mass.

What was measured:
Assay in all cases: in vitro antibacterial evaluation, MIC by broth dilution
Assay type in all cases: cell-based
[1] = tested on: Escherichia coli
Summary of the method: (§1)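 Broth dilution per NCCLS M7-A2 in Mueller-Hinton II medium, inoculum 5×10^5 CFU/mL, antibiotic range 64-0.06 μg/mL. MIC taken as lowest concentration inhibiting growth; Gram-positive panel includes recent clinical isolates resistant to methicillin, penicillin and/or vancomycin.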

[2] = tested on: Enterococcus sp.; conditions: broth dilution, 18 hours at 35° C.
Summary of the method: as §1

[3] = tested on: Staphylococcus sp.; conditions: broth dilution, 18 hours at 35° C.; for MIC Staphylococcus aureus (GC 1131): strain GC 1131
Summary of the method: as §1

[4] = tested on: Streptococcus sp.; conditions: broth dilution, 18 hours at 35° C.
Summary of the method: as §1

MIC Escherichia coli (ATCC 25922) ([1]; strain ATCC 25922, 18 hours at 35° C.): >64 µg/mL
MIC Escherichia coli (GC 4559) ([1]; strain GC 4559, 18 hours at 35° C.): >64 µg/mL
MIC Escherichia coli (GC 4560) ([1]; strain GC 4560, 18 hours at 35° C.): 8 µg/mL (≈ 5.66 µM)
MIC Enterococcus avium (GC 4558) ([2]; Enterococcus avium (GC 4558)): 64 µg/mL (≈ 45.3 µM)
MIC Enterococcus faecalis (ATCC 29212) ([2]; Enterococcus faecalis (ATCC 29212)): >64 µg/mL
MIC Enterococcus faecalis (GC 2242) ([2]; Enterococcus faecalis (GC 2242)): >64 µg/mL
MIC Enterococcus faecalis (GC 2691) ([2]; Enterococcus faecalis (GC 2691)): >64 µg/mL
MIC Enterococcus faecalis (GC 3059) ([2]; Enterococcus faecalis (GC 3059)): >64 µg/mL
MIC Enterococcus faecalis (GC 4552) ([2]; Enterococcus faecalis (GC 4552)): >64 µg/mL
MIC Enterococcus faecalis (GC 4553) ([2]; Enterococcus faecalis (GC 4553)): >64 µg/mL
MIC Enterococcus faecalis (GC 4554) ([2]; Enterococcus faecalis (GC 4554)): >64 µg/mL
MIC Enterococcus faecalis (GC 6189) ([2]; Enterococcus faecalis (GC 6189)): >64 µg/mL
MIC Enterococcus faecium (GC 2243) ([2]; Enterococcus faecium (GC 2243)): >64 µg/mL
MIC Enterococcus faecium (GC 4556) ([2]; Enterococcus faecium (GC 4556)): >64 µg/mL
MIC Enterococcus faecium (GC 4557) ([2]; Enterococcus faecium (GC 4557)): 16 µg/mL (≈ 11.3 µM)
MIC Enterococcus faecalis (ATCC 29212) ([2]; strain ATCC 29212): >64 µg/mL
MIC Enterococcus faecalis (GC 2242) ([2]; strain GC 2242): >64 µg/mL
MIC Enterococcus faecium (GC 2243) ([2]; strain GC 2243): >64 µg/mL
MIC Enterococcus faecalis (GC 2691) ([2]; strain GC 2691): >64 µg/mL
MIC Enterococcus faecalis (GC 3059) ([2]; strain GC 3059): >64 µg/mL
MIC Enterococcus faecalis (GC 4552) ([2]; strain GC 4552): >64 µg/mL
MIC Enterococcus faecalis (GC 4553) ([2]; strain GC 4553): >64 µg/mL
MIC Enterococcus faecalis (GC 4554) ([2]; strain GC 4554): >64 µg/mL
MIC Enterococcus faecium (GC 4556) ([2]; strain GC 4556): >64 µg/mL
MIC Enterococcus faecium (GC 4557) ([2]; strain GC 4557): 16 µg/mL (≈ 11.3 µM)
MIC Enterococcus avium (GC 4558) ([2]; strain GC 4558): 64 µg/mL (≈ 45.3 µM)
MIC Enterococcus faecalis (GC 6189) ([2]; strain GC 6189): >64 µg/mL
MIC Staphylococcus aureus (GC 1131) ([3]; inoculum 5×10^5 CFU/mL): 32 µg/mL (≈ 22.6 µM)
MIC Staphylococcus aureus (ATCC 29213) ([3]; strain ATCC 29213): 32 µg/mL (≈ 22.6 µM)
MIC Staphylococcus aureus (GC 1131) [3]: 32 µg/mL (≈ 22.6 µM)
MIC Staphylococcus aureus (GC 3051) ([3]; strain GC 3051): 32 µg/mL (≈ 22.6 µM)
MIC Staphylococcus aureus (GC 3053) ([3]; strain GC 3053): 32 µg/mL (≈ 22.6 µM)
MIC Staphylococcus aureus (GC 4541) ([3]; strain GC 4541): 16 µg/mL (≈ 11.3 µM)
MIC Staphylococcus aureus (GC 4542) ([3]; strain GC 4542): 32 µg/mL (≈ 22.6 µM)
MIC Staphylococcus aureus-SMITH (GC 4543) ([3]; strain GC 4543): 16 µg/mL (≈ 11.3 µM)
MIC Staphylococcus aureus (GC 4544) ([3]; strain GC 4544): 32 µg/mL (≈ 22.6 µM)
MIC Staphylococcus aureus (GC 4545) ([3]; strain GC 4545): 32 µg/mL (≈ 22.6 µM)
MIC Coagulase Negative Staphylococcus (GC 4547) ([3]; strain GC 4547): 16 µg/mL (≈ 11.3 µM)
MIC Coagulase Negative Staphylococcus (GC 4548) ([3]; strain GC 4548): 8 µg/mL (≈ 5.66 µM)
MIC Coagulase Negative Staphylococcus (GC 4549) ([3]; strain GC 4549): 8 µg/mL (≈ 5.66 µM)
MIC Coagulase Negative Staphylococcus (GC 4551) ([3]; strain GC 4551): 16 µg/mL (≈ 11.3 µM)
MIC Coagulase Negative Staphylococcus (GC 6257) ([3]; strain GC 6257): 8 µg/mL (≈ 5.66 µM)
MIC Staphylococcus aureus-SMITH (GC 4543) ([3]; strain SMITH GC 4543): 16 µg/mL (≈ 11.3 µM)
MIC Streptococcus agalactiae (GC 4564) ([4]; Streptococcus agalactiae (GC 4564)): 16 µg/mL (≈ 11.3 µM)
MIC Streptococcus pneumoniae (ATCC 6301) ([4]; Streptococcus pneumoniae (ATCC 6301)): 8 µg/mL (≈ 5.66 µM)
MIC Streptococcus pneumoniae (GC 1894) ([4]; Streptococcus pneumoniae (GC 1894)): 4 µg/mL (≈ 2.83 µM)
MIC Streptococcus pneumoniae (GC 4565) ([4]; Streptococcus pneumoniae (GC 4565)): 16 µg/mL (≈ 11.3 µM)
MIC Streptococcus pyogenes (GC 4563) ([4]; Streptococcus pyogenes (GC 4563)): 16 µg/mL (≈ 11.3 µM)
MIC Streptococcus pneumoniae (ATCC 6301) ([4]; strain ATCC 6301): 8 µg/mL (≈ 5.66 µM)
MIC Streptococcus pneumoniae (GC 1894) ([4]; strain GC 1894): 4 µg/mL (≈ 2.83 µM)
MIC Streptococcus pyogenes (GC 4563) ([4]; strain GC 4563): 16 µg/mL (≈ 11.3 µM)
MIC Streptococcus agalactiae (GC 4564) ([4]; strain GC 4564): 16 µg/mL (≈ 11.3 µM)
MIC Streptococcus pneumoniae (GC 4565) ([4]; strain GC 4565): 16 µg/mL (≈ 11.3 µM)
SMILES: COc1cccc(C2OC3C(OC4C(CO)OC(Oc5ccc(CC6NC(=O)C(C(C)c7ccccc7)NC(=O)CNC(=O)C(CO)NC(=O)C(C(O)C7CNC(=N)N7C7OC(CO)C(O)C(O)C7O)NC(=O)C(C(O)C7CNC(=N)N7)NC6=O)cc5)C(O)C4O)OC(CO)C(O)C3O2)c1 (single isomer, unassigned) [Example 137a, Cyclo[glycyl-β-methylphenylalanyl-O-[4-O-[2,3-O-(3-methoxybenzylidene)hexopyranosyl]-hexopyranosyl]tyrosyl-3-(2-iminoimidazolidin-4-yl)seryl-3-(3-hexopyranosyl-2-iminoimidazolidin-4-yl)serylseryl]]
MIC Staphylococcus haemolyticus (GC 4546) ([3]; strain GC 4546): 16 µg/mL (≈ 11.3 µM)
